{
  "source": "patent US7235263B2",
  "about": "“Processes for controlling microbial organic compound production” (Kimberly-Clark Worldwide, Inc., priority 2001, dated 2007)",
  "key": {"[1]": {"system": "Proteus mirabilis (ATCC 29906)", "assay": "Bacterial yield of facultatively grown Proteus mirabilis in urine:TSB (from optical density)", "format": "cell-based", "conditions": "for Bacterial Yields: facultative", "procedure": "(§1) Proteus mirabilis (ATCC 29906) were recovered from frozen state by growing the appropriate bacterial coated MicroBank Bead (Pro Lab, Austin Tex.) in 10 mL trypticase soy broth (TSB, Difco, Ann Arbor, Mich.) in a 15 mL sterile loosely tightened screw capped conical tube overnight at 37° C. The tube was held stationary. (E. coli (ATCC 8739), utilized in Example 6 herein, was recovered using the same procedure described herein for Proteus mirabilis). Upon observation of turbidity, the bacterial suspension was checked for purity by isolation plate and Gram stain. Once determined that the isolate was Proteus mirabilis (or E. coli in Example 6), a colony from the isolation plate was transferred to 10 mL of TSB in a 15 mL sterile screw capped conical tube and incubated overnight at 37° C. under facultative conditions. Samples of bacterial suspension resulting from this overnight TSB culture were used to initiate all experiments utilizing Proteus mirabilis bacteria (or E. coli in Example 6).\nProteus mirabilis was taken from a TSB culture (described in (1) above) and grown under various conditions for use in the Examples. For bacteria to be grown under aerobic conditions, 50 microliters of Proteus mirabilis was taken from a TSB culture prepared as described above and inoculated into a 50 mL volume of a freshly made 9:1 (by volume) pooled adult female urine:TSB mixture into a 250 mL shake flask. This mixture was rotated at 250 rpm at 37° C. overnight to grow the bacteria. For bacteria to be grown under facultative conditions, 10 microliters of Proteus mirabilis was taken from a TSB culture prepared as described above and inoculated into a 10 mL volume of a freshly made 9:1 (by volume) pooled adult female urine:TSB mixture into a 15 mL tube. The tube was loosely fitted with a screw cap, and held stationary at 37° C. overnight to grow the bacteria. For bacteria to be grown under anaerobic conditions, 10 microliters of Proteus mirabilis was taken from a TSB culture prepared as described above and inoculated into a 10 mL volume of a freshly made 9:1 (by volume) pooled adult female urine:TSB mixture into a 15 mL conical tube. The tube was purged with nitrogen and a screw cap tightly closed, and then was held stationary overnight at 37° C. to grow the bacteria.\nIn this Example, five samples were prepared and analyzed to determine: (1) Bacterial Yield (CFU/mL) calculated from optical density; (3) Percent viability of EPIOCULAR; and (4) EPIOCULAR IL-8. The samples included: (1) Deionized Water; (2) A urine:TSB mixture (9:1 by volume) as described above; (3) A urine:TSB mixture containing Proteus mirabilis bacteria grown under aerobic conditions as described above; (4) A urine:TSB mixture containing Proteus mirabilis bacteria grown under facultative conditions as described above; and (5) A urine:TSB mixture containing Proteus mirabilis bacteria grown under anaerobic conditions as described above.\nIn this Example, six different samples were prepared for analysis. The first sample comprised a urine:TSB mixture that was prepared in the same manner as that described in Example 1. […] The tube was loosely fitted with a screw cap, and held stationary at 37° C. overnight to grow the bacteria. […] The fifth sample comprising urine:TSB:Proteus mirabilis (facultatively grown) was prepared in the same manner as that described in Example 1."}, "[2]": {"system": "E. coli (ATCC 8739)", "assay": "Bacterial yield of facultatively grown E. coli in urine:TSB", "format": "cell-based", "conditions": "Table 6, facultative E. coli in urine:TSB", "procedure": "as §1\nThe four samples were prepared identically to the four samples in Example 5 with the exception that facultatively grown E. coli was utilized as the bacteria in place of the Proteus mirabilis bacteria. The process for growing facultatively grown E. coli is set forth in Example 1.\nAfter incubation, each sample was analyzed for EPIOCULAR viability and bacterial cell count as set forth in Example 1. […]"}, "[3]": {"system": "interleukin-1 alpha (IL-1a)", "assay": "IL-1a release by EPIOCULAR skin culture challenged with sample", "format": "cell-based, human", "conditions": "Table 5, 6 hours", "excerpt": "In order to evaluate the amount of skin irritation by various samples prepared in the Examples, a human skin culture was selected to model the response of the human epidermis to treated and untreated bacterial metabolized urine:TSB mixture. The tissue model selected was an EPIOCULAR Tissue Model (OCL-200 propagated without hydrocortisone), and was purchased from MatTek Corporation (Ashland, Mass.). This model consists of normal, human-derived epidermal keratinocytes, which have been cultured to form a stratified, squamous epithelium similar to that found in the cornea. The epidermal cells, which are cultured on specially prepared cell culture inserts using a serum free medium, differentiate to form a multi-layered structures which closely parallel the corneal epithelium. Experiments using this skin culture were conducted in six parallel wells. Each well contained one milliliter of pre-warmed media that was the same as the model skin culture media. The plates were then incubated in a 37° C., 5% carbon dioxide atmosphere for thirty minutes. […] The response of the skin culture to test the compositions/control and the insult solution is determined by measuring the amount of interleukin-1 alpha (IL-1a) and/or interleukin-8 (IL-8). IL-1a and IL-8 were quantified using an Interleukin-1 alpha or Interleukin-8 Quantikine Kit available from R&D Systems (Minneapolis, Minn.)."}, "[4]": {"system": "E. coli (ATCC 8739)", "assay": "Ammonia in urine:TSB with facultatively grown E. coli", "format": "cell-based", "conditions": "Table 6, facultative E. coli", "procedure": "Upon completion of the respective incubation periods of the samples, optical density measurements of each sample were taken as described above and ammonia production of the growth solutions was measured using an ammonia combination probe (Beckman, Fullerton, Calif.) by record mV using an Orion pH meter (Orion, Boston, Mass.). Orion ammonia standards (Orion) were used to calibrate the instrument. The four samples were prepared identically to the four samples in Example 5 with the exception that facultatively grown E. coli was utilized as the bacteria in place of the Proteus mirabilis bacteria. The process for growing facultatively grown E. coli is set forth in Example 1."}},
  "data": [
    {"substance": "mannitol peroxide", "values": [
      {"measurement": "impact on the growth of the cells", "setting": "[1]; 5% and 10% mannitol peroxide, facultative Proteus mirabilis (Table 4)", "result": "very little, if any, impact on the growth of the cells"},
      {"measurement": "Bacterial Yields", "setting": "[1]; Table 3, 5% (w/v) mannitol peroxide, urine:TSB, 37° C. overnight", "result": "1.30E+9", "unit": "CFU/mL"},
      {"measurement": "Bacterial Yields", "setting": "[1]; Table 3, 10% mannitol peroxide, urine:TSB, 37° C. overnight", "result": "8.20E+8", "unit": "CFU/mL"},
      {"measurement": "Bacterial Yields", "setting": "[1]; Table 4, 5% mannitol peroxide", "result": "1.30E+9", "unit": "CFU/mL"},
      {"measurement": "Bacterial Yields", "setting": "[1]; Table 4, 10% mannitol peroxide", "result": "8.2E+8", "unit": "CFU/mL"},
      {"measurement": "Bacterial Yields", "setting": "[1]; Table 5, 5% (w/v) mannitol peroxide", "result": "1.30E+9", "unit": "CFU/mL"},
      {"measurement": "Bacterial Yields", "setting": "[1]; Table 5, 10% (w/v) mannitol peroxide", "result": "8.20E+8", "unit": "CFU/mL"},
      {"measurement": "Bacterial Yields", "setting": "[1]; Table 7, 5% mannitol peroxide", "result": "8.93E+8", "unit": "CFU/mL"},
      {"measurement": "Bacterial Yields", "setting": "[2]; 5% MP", "result": "2.14E+9", "unit": "CFU/mL"},
      {"measurement": "Bacterial Yields", "setting": "[2]; 10% MP", "result": "4.98E+9", "unit": "CFU/mL"},
      {"measurement": "IL-1a", "setting": "[3]; facultative Proteus mirabilis grown with 5% mannitol peroxide", "result": "48.12 ± 8.93", "unit": "pg/mL"},
      {"measurement": "IL-1a", "setting": "[3]; facultative Proteus mirabilis grown with 10% mannitol peroxide", "result": "15.26 ± 12.80", "unit": "pg/mL"},
      {"measurement": "Ammonia", "setting": "[4]; 5% MP", "result": 12.46, "unit": "ppm"},
      {"measurement": "Ammonia", "setting": "[4]; 10% MP", "result": 14.04, "unit": "ppm"}
    ]}
  ]
}
